Our source for the TGI values is PubChem BioAssay (NCI).

Test systems include 786-0 renal; HOP-62 NSCLC; HOP-92 NSCLC; NCI-H460 lung; PC-3 prostate; RXF 393 renal; SN12C renal; TK-10 renal; U251 CNS; UACC-62 melanoma.
Holding throughout (assay): NCI anticancer screen, dose series, 48 h

Molecules are shown by their SMILES.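 Interpolation was linear, between the two tested concentrations surrounding the appropriate level; five concentrations were tested over 48 hours in 96-well plates. TGI is the concentration that stops growth completely.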

Turning to `C/C(=N/NC(=S)Nc1ccccc1Cl)c1ccccn1`, the TGI stood at 15.8 µM in the assay on 786-0 renal; 12.4 µM in the assay on HOP-62 NSCLC; 22.7 µM in the assay with HOP-92 NSCLC; 9.85 µM in the assay on NCI-H460 lung; 27.3 µM in the assay with PC-3 prostate; 11.6 µM in the assay on RXF 393 renal. The TGI in the assay with SN12C renal stood at 8.4 µM; with TK-10 renal, 17.1 µM; with U251 CNS it was 15.3 µM; in the assay with UACC-62 melanoma, 7.49 µM.

Turning to `CCN(CC)c1ccc(/C=C(\C#N)c2nc(N)nc(N3N=C(C)CC3(C)C)n2)cc1`, the TGI is 26.8 µM in the assay on 786-0 renal; 23.6 µM in the assay on HOP-62 NSCLC; 22.4 µM in the assay on HOP-92 NSCLC; 44.5 µM in the assay on NCI-H460 lung; greater than 100 µM in the assay with PC-3 prostate; 23.7 µM in the assay on RXF 393 renal. For the same molecule, the TGI was 71.2 µM in the assay on SN12C renal, 31.7 µM with TK-10 renal, 26.1 µM in the assay with U251 CNS and greater than 100 µM in the assay with UACC-62 melanoma.

Take `S=c1ssc2c3ssc(=S)c3n(Cc3ccccc3)c12`: the TGI in the assay with 786-0 renal is greater than 100 µM; in the assay with HOP-62 NSCLC, greater than 100 µM; in the assay with HOP-92 NSCLC, greater than 100 µM; in the assay with NCI-H460 lung it was greater than 100 µM; with PC-3 prostate, greater than 100 µM; in the assay with RXF 393 renal, 34.3 µM. The TGI in the assay on SN12C renal, in the assay on TK-10 renal, in the assay on U251 CNS and in the assay on UACC-62 melanoma was greater than 100 µM each time.

With `Cc1ccc(S(=O)ON2CCC(C(=O)O)(c3ccccc3)CC2)cc1` (stereo not given), the TGI is greater than 32.2 µM in the assay with 786-0 renal; greater than 100 µM in the assay with HOP-62 NSCLC; greater than 100 µM in the assay on HOP-92 NSCLC; greater than 100 µM in the assay with NCI-H460 lung; greater than 100 µM with PC-3 prostate; greater than 100 µM with RXF 393 renal. Moreover, the TGI in the assay on SN12C renal, in the assay with TK-10 renal, in the assay with U251 CNS and with UACC-62 melanoma was greater than 100 µM each time.

Turning to `CC(C)(C)OC(=O)[N+](=N)C(=O)C1CCC(=O)N1C(=O)OCc1ccccc1` (stereo not given), the TGI in the assay with 786-0 renal, in the assay on HOP-62 NSCLC, in the assay with HOP-92 NSCLC, in the assay on NCI-H460 lung, in the assay on PC-3 prostate and with RXF 393 renal was greater than 100 µM in each case. Further, the TGI in the assay on SN12C renal, with TK-10 renal, in the assay on U251 CNS and with UACC-62 melanoma was greater than 100 µM throughout.

Turning to `CCCCCCCCC[C@@H]1C[C@@H]2CCC3C(C(=O)OC)=C(C)NC(=N1)N32` (stereo not given in full), the TGI was determined as 18.9 µM in the assay on 786-0 renal; 26.9 µM in the assay with HOP-62 NSCLC; 27.3 µM in the assay with HOP-92 NSCLC; 16.3 µM in the assay on NCI-H460 lung; 18.3 µM in the assay with PC-3 prostate; 8.55 µM in the assay on RXF 393 renal. Further, the TGI in the assay with SN12C renal came to 32.5 µM; in the assay with TK-10 renal, 29.1 µM; in the assay with U251 CNS it was 16.8 µM; with UACC-62 melanoma, 17.4 µM.

Regarding `CCN(CC)C(=S)SS(=O)(=O)c1ccccc1C(=O)O`, the TGI with 786-0 renal, with HOP-62 NSCLC, in the assay with HOP-92 NSCLC, in the assay with NCI-H460 lung, in the assay on PC-3 prostate and with RXF 393 renal was greater than 100 µM throughout. The TGI with SN12C renal, in the assay on TK-10 renal, in the assay on U251 CNS and with UACC-62 melanoma was greater than 100 µM in each case.

For the molecule `Cn1cc(C(=O)c2nccc3c2cnc2ccccc23)ccc1=O`, the TGI is greater than 100 µM in the assay on 786-0 renal; greater than 100 µM with HOP-62 NSCLC; greater than 100 µM in the assay with HOP-92 NSCLC; greater than 100 µM with NCI-H460 lung; greater than 100 µM in the assay with PC-3 prostate; 8.62 µM in the assay on RXF 393 renal. The TGI in the assay on SN12C renal, with TK-10 renal, in the assay with U251 CNS and with UACC-62 melanoma was greater than 100 µM in each case.

For `Cn1c(=O)oc2cc(C(=O)CSC(=S)N3CCCCCC3)ccc21`, the TGI in the assay with 786-0 renal, in the assay with HOP-62 NSCLC, in the assay with HOP-92 NSCLC, with NCI-H460 lung, in the assay with PC-3 prostate and in the assay with RXF 393 renal was greater than 100 µM throughout. The TGI in the assay with SN12C renal, with TK-10 renal, with U251 CNS and in the assay with UACC-62 melanoma was greater than 100 µM each time.

Consider `CSC(SC)=C1CC(=O)Nc2ccccc2C1=O`, for which the TGI is greater than 100 µM with 786-0 renal; greater than 100 µM in the assay with HOP-62 NSCLC; 78.4 µM in the assay on HOP-92 NSCLC; greater than 100 µM with NCI-H460 lung; greater than 100 µM with PC-3 prostate; 52.8 µM in the assay with RXF 393 renal. The TGI with SN12C renal, in the assay on TK-10 renal, in the assay with U251 CNS and with UACC-62 melanoma was greater than 100 µM in each case.

Take `CN(C)c1nc(N(C)C)nc(N(C)C)n1`: the TGI in the assay with 786-0 renal is greater than 150 µM; with HOP-62 NSCLC it was greater than 142 µM; in the assay on HOP-92 NSCLC, greater than 150 µM; in the assay on NCI-H460 lung, greater than 150 µM; in the assay with PC-3 prostate, greater than 150 µM; in the assay with RXF 393 renal, greater than 150 µM. For the same molecule, the TGI with SN12C renal, in the assay with TK-10 renal, in the assay on U251 CNS and in the assay on UACC-62 melanoma was greater than 150 µM in each case.

Take `Cc1ccc(Nc2nc(=S)[nH]c3[nH]ncc23)cc1`: the TGI with 786-0 renal, in the assay on HOP-62 NSCLC, in the assay on HOP-92 NSCLC, in the assay on NCI-H460 lung, with PC-3 prostate and with RXF 393 renal was greater than 100 µM throughout. Further, the TGI in the assay with SN12C renal, in the assay on TK-10 renal, with U251 CNS and with UACC-62 melanoma was greater than 100 µM throughout.

As for `CCOC(=O)CN1CCNCCN(CC(=O)OCC)CCNCC1`, the TGI with 786-0 renal, in the assay with HOP-62 NSCLC, in the assay on HOP-92 NSCLC, in the assay on NCI-H460 lung, in the assay with PC-3 prostate and in the assay on RXF 393 renal was greater than 100 µM throughout. For the same molecule, the TGI in the assay with SN12C renal, in the assay with TK-10 renal, with U251 CNS and in the assay on UACC-62 melanoma was greater than 100 µM in each case.

In the case of `O=C(c1ccccc1)c1ccc(C(c2c(O)c3ccccc3oc2=O)c2c(O)c3ccccc3oc2=O)cc1`, the TGI is 48.9 µM in the assay on 786-0 renal; greater than 57.3 µM with HOP-62 NSCLC; greater than 64.1 µM with HOP-92 NSCLC; greater than 100 µM in the assay with NCI-H460 lung; greater than 74.5 µM with PC-3 prostate; greater than 69.2 µM in the assay on RXF 393 renal. The TGI with SN12C renal is greater than 77.2 µM; in the assay on TK-10 renal, 36.7 µM; with U251 CNS it was greater than 78.4 µM; with UACC-62 melanoma, 39.5 µM.

For the molecule `CCC1(C)C=Cc2c(cc(OC)c3c(=O)c4ccccc4n(C)c23)O1` (stereo not given), the TGI was greater than 10 µM in the assay on 786-0 renal; greater than 10 µM in the assay with HOP-62 NSCLC; greater than 10 µM in the assay with HOP-92 NSCLC; greater than 10 µM with NCI-H460 lung; greater than 10 µM with PC-3 prostate; 5.52 µM in the assay with RXF 393 renal. In addition, the TGI with SN12C renal, with TK-10 renal, in the assay on U251 CNS and in the assay on UACC-62 melanoma was greater than 10 µM each time.

Take `COc1ccc(/C=C2\C=Cc3ccccc32)cc1OC`: the TGI is greater than 100 µM in the assay on 786-0 renal; greater than 100 µM in the assay on HOP-62 NSCLC; 64.9 µM in the assay with HOP-92 NSCLC; greater than 100 µM in the assay on NCI-H460 lung; greater than 100 µM in the assay on PC-3 prostate; greater than 100 µM in the assay with RXF 393 renal. Also, the TGI with SN12C renal, in the assay on TK-10 renal, in the assay on U251 CNS and with UACC-62 melanoma was greater than 100 µM each time.

In the case of `COc1c2c(c(OC)c3c1c(=O)c1ccccc1n3C)OCO2`, the TGI with 786-0 renal is greater than 100 µM; with HOP-62 NSCLC it was greater than 100 µM; in the assay with HOP-92 NSCLC it was greater than 100 µM; with NCI-H460 lung it was 51.2 µM; in the assay on PC-3 prostate, greater than 100 µM; in the assay with RXF 393 renal it was greater than 100 µM. The TGI in the assay with SN12C renal, in the assay with TK-10 renal, in the assay on U251 CNS and with UACC-62 melanoma was greater than 100 µM in each case.

For the molecule `CCOC(=O)C1C(=O)CC(O)(OCC)C(C(=O)OCC)C1c1ccc(OC)cc1` (stereo not given), the TGI in the assay on 786-0 renal, in the assay on HOP-62 NSCLC, in the assay on HOP-92 NSCLC, in the assay with NCI-H460 lung, with PC-3 prostate and in the assay with RXF 393 renal was greater than 100 µM each time. Further, the TGI in the assay with SN12C renal, with TK-10 renal, in the assay on U251 CNS and in the assay with UACC-62 melanoma was greater than 100 µM each time.

For `CCOC(=O)c1nc2cc(N3CCOCC3)c(F)cc2[nH]c1=O`, the TGI in the assay on 786-0 renal, in the assay with HOP-62 NSCLC, in the assay on HOP-92 NSCLC, in the assay with NCI-H460 lung, in the assay with PC-3 prostate and in the assay on RXF 393 renal was greater than 100 µM each time. Besides, the TGI in the assay on SN12C renal, in the assay on TK-10 renal, in the assay with U251 CNS and in the assay on UACC-62 melanoma was greater than 100 µM in each case.

Consider `CNc1ncnc(Sc2nc(N)nc3nc[nH]c23)c1[N+](=O)[O-]`, for which the TGI was 16.5 µM in the assay on 786-0 renal; greater than 100 µM in the assay with HOP-62 NSCLC; 16.4 µM with HOP-92 NSCLC; 3.28 µM in the assay with NCI-H460 lung; 22 µM in the assay on PC-3 prostate; 8.06 µM with RXF 393 renal. Moreover, the TGI was 11.9 µM in the assay with SN12C renal, 0.941 µM in the assay with TK-10 renal, 26.9 µM in the assay on U251 CNS and 16.2 µM in the assay with UACC-62 melanoma.
